From ChEMBL document CHEMBL1201862, “PubChem BioAssay data set” (2004)
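Assay format: 96-well plates, 48-hour exposure. Here, GI50 denotes the concentration required for 50% inhibition of growth.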 Active and inactive are the calls of the source. No stated cut-off is given here; in the data, active = GI50 up to about 1.1 µM and inactive = higher.

Columns and labels:
Assay in all cases: NCI anticancer screen, dose series, 48 h
HCC 2998 = test system: HCC 2998
CCRF-CEM = test system: CCRF-CEM
RXF 393 = test system: RXF 393
SK-MEL-28 = test system: SK-MEL-28
HCT-116 = test system: HCT-116
HOP-92 = test system: HOP-92
SF-295 = test system: SF-295
A498 = test system: A498
Malme-3M = test system: Malme-3M
U-251 = test system: U-251
K562 = test system: K562
OVCAR-3 = test system: OVCAR-3
TK-10 = test system: TK-10
OVCAR-5 = test system: OVCAR-5
SN12C = test system: SN12C
HCT-15 = test system: HCT-15
IGROV-1 = test system: IGROV-1
SNB-75 = test system: SNB-75
OVCAR-8 = test system: OVCAR-8
UACC-62 = test system: UACC-62

With `Nc1nc(N)c2c(n1)NC(=O)c1c(c3ccccc3n1Cc1ccc(Cl)cc1)C2` the GI50 (HCC 2998) was 17.8 µM (inactive), the GI50 (CCRF-CEM) was 17.7 µM (inactive) and the GI50 (RXF 393) was 15.5 µM (inactive). The GI50 (SK-MEL-28) was 49 µM (inactive), the GI50 (HCT-116) was 23.6 µM (inactive) and the GI50 (HOP-92) was 1.5 µM (inactive). For the same compound, the GI50 (SF-295) was 34.2 µM (inactive), the GI50 (A498) was 16 µM (inactive) and the GI50 (Malme-3M) was 55.3 µM (inactive). For the same compound, the GI50 (U-251) was 25.8 µM (inactive), the GI50 (K562) was 25.6 µM (inactive) and the GI50 (OVCAR-3) was 23.3 µM (inactive). The GI50 (TK-10) was 21.5 µM (inactive), the GI50 (OVCAR-5) was 48.9 µM (inactive) and the GI50 (SN12C) was 17.3 µM (inactive). For the same compound, the GI50 (HCT-15) was 17 µM, the GI50 (IGROV-1) was 29.6 µM (inactive) and the GI50 (SNB-75) was 17.9 µM (inactive). For the same compound, the GI50 (OVCAR-8) was 26.4 µM (inactive) and the GI50 (UACC-62) was 45.7 µM (inactive).

In the case of `Fc1ccc(C(OCCN2CCC3CCC(C2)N3Cc2cc3ccccc3[nH]2)c2ccc(F)cc2)cc1` (centres undefined), the GI50 (HCC 2998) is reported as 1.63 µM (inactive), the GI50 (CCRF-CEM) is reported as 1.71 µM (inactive) and the GI50 (RXF 393) is reported as 1.59 µM (inactive). The GI50 (SK-MEL-28) was 1.61 µM (inactive), the GI50 (HCT-116) was 1.33 µM (inactive) and the GI50 (HOP-92) was 1.84 µM (inactive). The GI50 (SF-295) was 1.96 µM (inactive), the GI50 (A498) was 1.47 µM (inactive) and the GI50 (Malme-3M) was 1.58 µM (inactive). The GI50 (U-251) was 1.87 µM (inactive), the GI50 (K562) was 1.13 µM (inactive) and the GI50 (OVCAR-3) was 1.77 µM (inactive). For the same compound, the GI50 (TK-10) was 2.43 µM (inactive), the GI50 (OVCAR-5) was 1.74 µM (inactive) and the GI50 (SN12C) was 1.68 µM (inactive). For the same compound, the GI50 (HCT-15) was 1.15 µM, the GI50 (IGROV-1) was 1.38 µM (inactive) and the GI50 (SNB-75) was 1.89 µM (inactive). The GI50 (OVCAR-8) was 1.73 µM (inactive) and the GI50 (UACC-62) was 2.08 µM (inactive).

With `O=C1NCN(c2ccccc2)C12CCN(CCCSc1ccc(F)cc1)CC2` the GI50 (HCC 2998) was 20.2 µM (inactive), the GI50 (CCRF-CEM) was 7 µM (inactive) and the GI50 (RXF 393) was > 42 µM (inactive). The GI50 (SK-MEL-28) was 55.2 µM (inactive), the GI50 (HCT-116) was 5.09 µM (inactive) and the GI50 (HOP-92) was 9.71 µM (inactive). For the same compound, the GI50 (SF-295) was 39 µM (inactive), the GI50 (A498) was 11.4 µM (inactive) and the GI50 (Malme-3M) was 21.2 µM (inactive). For the same compound, the GI50 (U-251) was > 88.5 µM (inactive), the GI50 (K562) was 19.5 µM (inactive) and the GI50 (OVCAR-3) was 55.6 µM (inactive). For the same compound, the GI50 (TK-10) was 24.2 µM (inactive), the GI50 (OVCAR-5) was 16.9 µM (inactive) and the GI50 (SN12C) was 21.4 µM (inactive). The GI50 (HCT-15) was 31.1 µM, the GI50 (IGROV-1) was 9.1 µM (inactive) and the GI50 (SNB-75) was 3.72 µM (inactive). The GI50 (OVCAR-8) was > 100 µM (inactive) and the GI50 (UACC-62) was 27.4 µM (inactive).

In the case of `C=CS(=O)(=O)c1c2cc(OC)ccc2nc2ccc(OC)cc12`, the GI50 (HCC 2998) is reported as 7.91 µM (inactive), the GI50 (CCRF-CEM) is reported as 3.22 µM (inactive) and the GI50 (RXF 393) is reported as 3.99 µM (inactive). For the same compound, the GI50 (SK-MEL-28) was 7.98 µM (inactive), the GI50 (HCT-116) was 2.11 µM (inactive) and the GI50 (HOP-92) was 5.33 µM (inactive). The GI50 (SF-295) was 15 µM (inactive), the GI50 (A498) was 12.7 µM (inactive) and the GI50 (Malme-3M) was 2.04 µM (inactive). For the same compound, the GI50 (U-251) was 7.05 µM (inactive), the GI50 (K562) was 4.39 µM (inactive) and the GI50 (OVCAR-3) was 2.82 µM (inactive). For the same compound, the GI50 (TK-10) was 7.62 µM (inactive), the GI50 (OVCAR-5) was 6.14 µM (inactive) and the GI50 (SN12C) was 2.88 µM (inactive). For the same compound, the GI50 (HCT-15) was 3.31 µM, the GI50 (IGROV-1) was 2.92 µM (inactive) and the GI50 (SNB-75) was 12.4 µM (inactive). For the same compound, the GI50 (OVCAR-8) was 3.6 µM (inactive) and the GI50 (UACC-62) was 12.2 µM (inactive).

`O=C1CSC(c2c(O)ccc3ccccc23)N1n1c(S)nnc(/C=C/c2c(O)ccc3ccccc23)c1=O` (centres undefined) was tested, and the GI50 (HCC 2998) was 1.11 µM (active), the GI50 (CCRF-CEM) was 0.244 µM (active) and the GI50 (RXF 393) was 1.45 µM (inactive). The GI50 (HCT-116) was 0.359 µM (active), the GI50 (HOP-92) was 16.3 µM (inactive) and the GI50 (SF-295) was 6.71 µM (inactive). The GI50 (A498) was 2.76 µM (inactive), the GI50 (Malme-3M) was 2.22 µM (inactive) and the GI50 (U-251) was 1.33 µM (inactive). The GI50 (K562) was 0.521 µM (active), the GI50 (OVCAR-3) was 0.387 µM (active) and the GI50 (TK-10) was 1.18 µM (inactive). The GI50 (OVCAR-5) was 1.99 µM (inactive), the GI50 (SN12C) was 0.752 µM (active) and the GI50 (HCT-15) was 0.327 µM. The GI50 (IGROV-1) was 2.28 µM (inactive), the GI50 (SNB-75) was 1.5 µM (inactive) and the GI50 (OVCAR-8) was 0.467 µM (active). The GI50 (UACC-62) was 0.705 µM (active).

With `O=C1C(Cl)=C(c2ccc([N+](=O)[O-])cc2)C(=O)c2c(O)cccc21` the GI50 (HCC 2998) was 2.26 µM (inactive), the GI50 (CCRF-CEM) was 1.55 µM (inactive) and the GI50 (RXF 393) was 0.678 µM (active). For the same compound, the GI50 (SK-MEL-28) was 1.26 µM (inactive), the GI50 (HCT-116) was 1.06 µM (active) and the GI50 (HOP-92) was 1.44 µM (inactive). The GI50 (SF-295) was 2.7 µM (inactive), the GI50 (A498) was 3.08 µM (inactive) and the GI50 (Malme-3M) was 2.09 µM (inactive). For the same compound, the GI50 (U-251) was 0.8 µM (active), the GI50 (K562) was 1.11 µM (active) and the GI50 (OVCAR-3) was 1.3 µM (inactive). The GI50 (TK-10) was 3.14 µM (inactive), the GI50 (OVCAR-5) was 2.24 µM (inactive) and the GI50 (SN12C) was 2.96 µM (inactive). The GI50 (HCT-15) was 0.614 µM, the GI50 (IGROV-1) was 2.39 µM (inactive) and the GI50 (SNB-75) was 1.83 µM (inactive). For the same compound, the GI50 (OVCAR-8) was 1.39 µM (inactive) and the GI50 (UACC-62) was 0.508 µM (active).

`Cc1cc(Cl)ccc1NC1=NC(=O)C(CC(=O)Nc2cccc(Cl)c2)S1` (centres undefined) was tested, and the GI50 (HCC 2998) was 63.2 µM (inactive), the GI50 (CCRF-CEM) was 22.6 µM (inactive) and the GI50 (RXF 393) was 12.1 µM (inactive). The GI50 (SK-MEL-28) was > 100 µM (inactive), the GI50 (HCT-116) was 24.2 µM (inactive) and the GI50 (HOP-92) was 14.2 µM (inactive). The GI50 (SF-295) was 18.5 µM (inactive), the GI50 (A498) was 23.8 µM (inactive) and the GI50 (Malme-3M) was > 100 µM (inactive). The GI50 (U-251) was 33.2 µM (inactive), the GI50 (K562) was 13.8 µM (inactive) and the GI50 (OVCAR-3) was 43 µM (inactive). The GI50 (TK-10) was 83.6 µM (inactive), the GI50 (OVCAR-5) was 16.1 µM (inactive) and the GI50 (SN12C) was 53.5 µM (inactive). For the same compound, the GI50 (HCT-15) was 32.1 µM, the GI50 (IGROV-1) was 40.3 µM (inactive) and the GI50 (SNB-75) was 18.7 µM (inactive). For the same compound, the GI50 (OVCAR-8) was > 100 µM (inactive) and the GI50 (UACC-62) was 22.2 µM (inactive).
